Measured values published in patent US20080269241A1, “BICYCLIC AMINOPROPYL TETRAHYDRO-PYRAZOLO-PYRIDINE MODULATORS OF CATHEPSIN S” (priority 2007, published 2008).

Target: T1, human cathepsin S (CatS) (Homo sapiens, UniProt P25774)
T1 construct: made in house; host or cells: baculovirus system (insect cells)
Test: Recombinant human cathepsin S (CatS) fluorogenic substrate inhibition assay
Assay type: biochemical
Conditions: recombinant human CatS, 10 μM Z-Valine-Valine-Arginine-AMC, pH 5.0; average of results obtained; read-out: CatS IC50
Protocol: Recombinant human cathepsin S (CatS) was expressed in the baculovirus system and purified in one step with a thiopropyl-sepharose column. […] The assay is run in 150 mM sodium acetate pH 5.0 containing 1.5 mM DTT and 150 mM NaCl. […] Measurements are taken every min for 20 min. The rate is calculated from the slope of the increase in fluorescence and the percent inhibition is calculated from this.

T1 sequence (P25774 115-331): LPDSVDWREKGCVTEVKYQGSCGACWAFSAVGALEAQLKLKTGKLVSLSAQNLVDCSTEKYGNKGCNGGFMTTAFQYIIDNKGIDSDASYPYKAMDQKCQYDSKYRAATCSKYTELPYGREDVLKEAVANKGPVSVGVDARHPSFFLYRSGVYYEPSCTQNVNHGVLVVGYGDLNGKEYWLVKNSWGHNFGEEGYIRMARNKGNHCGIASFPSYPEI

Structure (SMILES)	IC50
CC(O)CC(=O)NCc1cc(-c2nn(CCCN3CCC(N4CCCC4=O)CC3)c3c2CN(S(C)(=O)=O)CC3)ccc1C(F)(F)F (stereo not shown) [Example 131, 3-Hydroxy-N-[5-(5-methanesulfonyl-1-{3-[4-(2-oxo-pyrrolidin-1-yl)-piperidin-1-yl]-propyl}-4,5,6,7-tetrahydro-1H-pyrazolo[4,3-c]pyridin-3-yl)-2-trifluoromethyl-benzyl]-butyramide]	270 nM
CS(=O)(=O)N1CCc2c(c(-c3ccc(C(F)(F)F)c(CNC(=O)c4ccc5[nH]c(=O)[nH]c5c4)c3)nn2CC(O)CN2CCC(N3CCCC3=O)CC2)C1 (stereo not shown) [Example 120, 2-Oxo-2,3-dihydro-1H-benzoimidazole-5-carboxylic acid 5-(1-{2-hydroxy-3-[4-(2-oxo-pyrrolidin-1-yl)-piperidin-1-yl]-propyl}-5-methanesulfonyl-4,5,6,7-tetrahydro-1H-pyrazolo[4,3-c]pyridin-3-yl)-2-trifluoromethyl-benzylamide]	140 nM
CC(C)CC(=O)NCc1cc(-c2nn(CC(O)CN3CCC(c4nnnn4Cc4ccccc4)CC3)c3c2CN(S(C)(=O)=O)CC3)ccc1C(F)(F)F (stereo not shown) [Example 256, N-[5-(1-{3-[4-(1-Benzyl-1H-tetrazol-5-yl)-piperidin-1-yl]-2-hydroxy-propyl}-5-methanesulfonyl-4,5,6,7-tetrahydro-1H-pyrazolo[4,3-c]pyridin-3-yl)-2-trifluoromethyl-benzyl]-3-methyl-butyramide]	70 nM
CC(C)CC(=O)NCc1cc(-c2nn(CC(O)CN3CCC(N4CCOCC4)CC3)c3c2CN(S(C)(=O)=O)CC3)ccc1C(F)(F)F (stereo not shown) [Example 254, N-(5-{1-[2-Hydroxy-3-(4-morpholin-4-yl-piperidin-1-yl)-propyl]-5-methanesulfonyl-4,5,6,7-tetrahydro-1H-pyrazolo[4,3-c]pyridin-3-yl}-2-trifluoromethyl-benzyl)-3-methyl-butyramide]	120 nM
CS(=O)(=O)N1CCc2c(c(-c3ccc(C(F)(F)F)c(CNC(=O)CO)c3)nn2CCCN2CCC(N3CCCC3=O)CC2)C1 [Example 187, 2-Hydroxy-N-[5-(5-methanesulfonyl-1-{3-[4-(2-oxo-pyrrolidin-1-yl)-piperidin-1-yl]-propyl}-4,5,6,7-tetrahydro-1H-pyrazolo[4,3-c]pyridin-3-yl)-2-trifluoromethyl-benzyl]-acetamide]	1800 nM
CCSC(=O)NCc1cc(-c2nn(CCCN3CCC(N4CCCC4=O)CC3)c3c2CN(S(C)(=O)=O)CC3)ccc1C(F)(F)F [Example 138, [5-(5-Methanesulfonyl-1-{3-[4-(2-oxo-pyrrolidin-1-yl)-piperidin-1-yl]-propyl}-4,5,6,7-tetrahydro-1H-pyrazolo[4,3-c]pyridin-3-yl)-2-trifluoromethyl-benzyl]-thiocarbamic acid S-ethyl ester]	430 nM
CS(=O)(=O)N1CCc2c(c(-c3ccc(C(F)(F)F)c(CNC(=O)c4cccnc4)c3)nn2CC(O)CN2CCC(N3CCCC3=O)CC2)C1 (stereo not shown) [Example 126, N-[5-(1-{2-Hydroxy-3-[4-(2-oxo-pyrrolidin-1-yl)-piperidin-1-yl]-propyl}-5-methanesulfonyl-4,5,6,7-tetrahydro-1H-pyrazolo[4,3-c]pyridin-3-yl)-2-trifluoromethyl-benzyl]-nicotinamide]	210 nM
CS(=O)(=O)N1CCc2c(c(-c3ccc(Cl)c(NC(=O)c4ccc(C#N)cc4)c3)nn2CCCN2CCN(c3cccc(Cl)c3)CC2)C1 [Example 201, N-[2-Chloro-5-(1-{3-[4-(3-chloro-phenyl)-piperazin-1-yl]-propyl}-5-methanesulfonyl-4,5,6,7-tetrahydro-1H-pyrazolo[4,3-c]pyridin-3-yl)-phenyl]-4-cyano-benzamide]	580 nM
Cc1ccc(C(=O)Nc2cc(-c3nn(CCCN4CCN(c5cccc(Cl)c5)CC4)c4c3CN(S(C)(=O)=O)CC4)ccc2Cl)cc1 [Example 198, N-[2-Chloro-5-(1-{3-[4-(3-chloro-phenyl)-piperazin-1-yl]-propyl}-5-methanesulfonyl-4,5,6,7-tetrahydro-1H-pyrazolo[4,3-c]pyridin-3-yl)-phenyl]-4-methyl-benzamide]	410 nM
CS(=O)(=O)N1CCc2c(c(-c3ccc(Cl)c(NC(=O)c4ccc(F)cc4)c3)nn2CCCN2CCN(c3cccc(Cl)c3)CC2)C1 [Example 234, N-[2-Chloro-5-(1-{3-[4-(3-chloro-phenyl)-piperazin-1-yl]-propyl}-5-methanesulfonyl-4,5,6,7-tetrahydro-1H-pyrazolo[4,3-c]pyridin-3-yl)-phenyl]-4-fluoro-benzamide]	840 nM
CS(=O)(=O)N1CCc2c(c(-c3ccc(C(F)(F)F)c(CNC(=O)Cn4cncn4)c3)nn2CCCN2CCC(N3CCCC3=O)CC2)C1 [Example 188, N-[5-(5-Methanesulfonyl-1-{3-[4-(2-oxo-pyrrolidin-1-yl)-piperidin-1-yl]-propyl}-4,5,6,7-tetrahydro-1H-pyrazolo[4,3-c]pyridin-3-yl)-2-trifluoromethyl-benzyl]-2-[1,2,4]triazol-1-yl-acetamide]	590 nM

Further lines, results first:

IC50	Structure (SMILES)
830 nM	CS(=O)(=O)N1CCc2c(c(-c3ccc(Cl)c(NC(=O)c4ccc(C(F)(F)F)cc4)c3)nn2CCCN2CCN(c3cccc(Cl)c3)CC2)C1 [Example 233, N-[2-Chloro-5-(1-{3-[4-(3-chloro-phenyl)-piperazin-1-yl]-propyl}-5-methanesulfonyl-4,5,6,7-tetrahydro-1H-pyrazolo[4,3-c]pyridin-3-yl)-phenyl]-4-trifluoromethyl-benzamide]
160 nM	Cc1ccsc1C(=O)NCc1cc(-c2nn(CC(O)CN3CCC(N4CCCC4=O)CC3)c3c2CN(S(C)(=O)=O)CC3)ccc1C(F)(F)F (stereo not shown) [Example 49, 3-Methyl-thiophene-2-carboxylic acid 5-(1-{2-hydroxy-3-[4-(2-oxo-pyrrolidin-1-yl)-piperidin-1-yl]-propyl}-5-methanesulfonyl-4,5,6,7-tetrahydro-1H-pyrazolo[4,3-c]pyridin-3-yl)-2-trifluoromethyl-benzylamide]
30 nM	Cc1noc(C2CCN(CC(O)Cn3nc(-c4ccc(C(F)(F)F)c(CNC(=O)CC(C)C)c4)c4c3CCN(S(C)(=O)=O)C4)CC2)n1 (stereo not shown) [Example 286, N-[5-(1-{2-Hydroxy-3-[4-(3-methyl-[1,2,4]oxadiazol-5-yl)-piperidin-1-yl]-propyl}-5-methanesulfonyl-4,5,6,7-tetrahydro-1H-pyrazolo[4,3-c]pyridin-3-yl)-2-trifluoromethyl-benzyl]-3-methyl-butyramide]
170 nM	CN1CCOc2cc(C(=O)NCc3cc(-c4nn(CC(O)CN5CCC(N6CCCC6=O)CC5)c5c4CN(S(C)(=O)=O)CC5)ccc3C(F)(F)F)ccc21 (stereo not shown) [Example 122, 4-Methyl-3,4-dihydro-2H-benzo[1,4]oxazine-7-carboxylic acid 5-(1-{2-hydroxy-3-[4-(2-oxo-pyrrolidin-1-yl)-piperidin-1-yl]-propyl}-5-methanesulfonyl-4,5,6,7-tetrahydro-1H-pyrazolo[4,3-c]pyridin-3-yl)-2-trifluoromethyl-benzylamide]
10 nM	CC(C)=CC(=O)NCc1cc(-c2nn(CC(O)CN3CCN(c4c(Cl)cncc4Cl)CC3)c3c2CN(S(C)(=O)=O)CC3)ccc1C(F)(F)F (stereo not shown) [Example 265, 3-Methyl-but-2-enoic acid 5-(1-{3-[4-(3,5-dichloro-pyridin-4-yl)-piperazin-1-yl]-2-hydroxy-propyl}-5-methanesulfonyl-4,5,6,7-tetrahydro-1H-pyrazolo[4,3-c]pyridin-3-yl)-2-trifluoromethyl-benzylamide]
